Like-named read-outs stand apart in the source and are kept apart here.
Legend:
[1] = system: P. berghei-ANKA-GFP-LucCON liver stage parasites in HepG2-A16-CD81EGFP cells; assay: P. berghei liver stage Pb-Luc assay, Method 1 (UCSD, 1536-well); assay type: cell-based, Plasmodium berghei; settings: for Max Resp (signal direction of the dose response) / AC50 / Log AC50 (M): Method 1; for Max Resp (signal direction of the dose response): Decrease = decreasing P. berghei viability with dose, Increase = increasing signal, Inactive = no dose response; for activity at 1 µM / activity at 3 µM: 48 h
[2] = in vitro; settings: human, n = 1
[3] = in vitro; settings: human
[4] = system: Plasmodium falciparum Dd2 asexual blood stage parasites; assay: microbe, parasite or virus in culture; set-up: species or system Plasmodium falciparum Dd2 in human erythrocytes; single determination (one 11-point concentration-response curve); settings: Plasmodium falciparum, DD2, Erythrocyte, 72 h; read-out: AC50
[5] = system: HepG2-A16-CD81EGFP cells; settings: average of 2 wells; for HepG2 viability signal, 3 uM, repeat 2: nominal 3 uM (10 mM stock), 4.5 uM for 15 mM, 3.6 uM for 12 mM, 6 uM for 20 mM stock; for HepG2 1uM growth rep1 / HepG2 1uM growth rep2: HepG2, 1 µM compound treatment (10 mM stocks); for HepG2 1uM growth rep1 / HepG2 3uM growth rep1: replicate 1, normalized; for HepG2 1uM growth rep2 / HepG2 3uM growth rep2: replicate 2, normalized; for HepG2 3uM growth rep1 / HepG2 3uM growth rep2: HepG2, 3 µM compound treatment (10 mM stocks)
[6] = Plasmodium berghei, nominal 1 uM (10 mM stock), […] for 15 mM, 1.2 uM for 12 mM, 2 uM for 20 mM stock, average of 2 wells, 1536-well plate, repeat 1, read-out: Pb-Luc signal, 1 uM, repeat 1
[7] = Plasmodium berghei, nominal 1 uM (10 mM stock), […] for 15 mM, 1.2 uM for 12 mM, 2 uM for 20 mM stock, average of 2 wells, 1536-well plate, repeat 2, read-out: Pb-Luc signal, 1 uM, repeat 2
[8] = Plasmodium berghei, nominal 1 uM (10 mM stock), […] for 15 mM, 1.2 uM for 12 mM, 2 uM for 20 mM stock, average of 2 wells, 1536-well plate, repeat 3, read-out: Pb-Luc signal, 1 uM, repeat 3
[9] = Plasmodium berghei, nominal 3 uM (10 mM stock), 4.5 uM for 15 mM, 3.6 uM for 12 mM, 6 uM for 20 mM stock, average of 2 wells, 1536-well plate, repeat 1, read-out: Pb-Luc signal, 3 uM, repeat 1
[10] = Plasmodium berghei, nominal 3 uM (10 mM stock), 4.5 uM for 15 mM, 3.6 uM for 12 mM, 6 uM for 20 mM stock, average of 2 wells, 1536-well plate, repeat 2, read-out: Pb-Luc signal, 3 uM, repeat 2
[11] = Plasmodium berghei, nominal 3 uM (10 mM stock), 4.5 uM for 15 mM, 3.6 uM for 12 mM, 6 uM for 20 mM stock, average of 2 wells, 1536-well plate, repeat 3, read-out: Pb-Luc signal, 3 uM, repeat 3
[12] = Plasmodium berghei, Hill fit, 50% of maximum activity response, read-out: AC50
[13] = Plasmodium berghei, log10 of molar AC50 from Hill fit, read-out: Log AC50 (converted)
[14] = HepG2-A16-CD81EGFP cells, uninfected
[15] = nominal 1 uM (10 mM stock), […] for 15 mM, 1.2 uM for 12 mM, 2 uM for 20 mM stock
[16] = Plasmodium berghei, P. berghei liver stage, 1 µM compound treatment (10 mM stocks), replicate 1, normalized, average of 2 wells on a 1536 well plate, read-out: PbLuc 1uM growth rep1
[17] = Plasmodium berghei, P. berghei liver stage, 1 µM compound treatment (10 mM stocks), replicate 2, normalized, average of 2 wells on a 1536 well plate, read-out: PbLuc 1uM growth rep2
[18] = Plasmodium berghei, P. berghei liver stage, 3 µM compound treatment (10 mM stocks), replicate 1, normalized, average of 2 wells on a 1536 well plate, read-out: PbLuc 3uM growth rep1
[19] = Plasmodium berghei, P. berghei liver stage, 3 µM compound treatment (10 mM stocks), replicate 2, normalized, average of 2 wells on a 1536 well plate, read-out: PbLuc 3uM growth rep2
[20] = Hill fit, 50% of maximum activity response, read-out: AC50
[21] = log10 of molar AC50 from Hill fit

SMILES	Max Resp (signal direction of the dose response) [1]	activity at 1 µM [1, 6] [%]	activity at 1 µM [1, 7] [%]	activity at 1 µM [1, 8] [%]	activity at 3 µM [1, 9] [%]	activity at 3 µM [1, 10] [%]	activity at 3 µM [1, 11] [%]	AC50 [1, 12] [µM]	AC50 [1, 13] [µM]	CC50 at 48 h ([2]; HepG2 cells) [µM]	AC50 [4] [µM]	HepG2 viability signal, 1 uM, repeat 2 [5, 15] [%]	HepG2 viability signal, 3 uM, repeat 2 [5] [%]	viability at 66 h [3, 14] [%]	further results
Cc1nn2c(c1-c1ccccc1-c1ccccc1)N(Cc1ccc(O)cc1)CCC2 [NCGC00420512-01]	Decrease	76.6	69.5	95.1	15.6	15.8	40.5	1.58	1.58	28	0.485	99.38	110.31	–	viability at 48 h, 1 µM [3, 14]: 96.5%; viability at 48 h, 3 µM [3, 14]: 112%
Cc1ccc(Cl)cc1NC(=O)c1cc2ccccc2cc1O [MLS000738149-01]	–	–	–	–	–	–	–	–	–	–	1.5	–	–	–	activity at 1 µM ([1]; Plasmodium berghei, 1 uM (compounds provided at 10 mM), average of 2 wells on a 1536 well plate, column 11, read-out: Pb-Luc (P. berghei liver stage), % of control, lower concentration, first repeat): 92%; activity at 1 µM ([1]; Plasmodium berghei, 1 uM (compounds provided at 10 mM), average of 2 wells on a 1536 well plate, column 12, read-out: Pb-Luc (P. berghei liver stage), % of control, lower concentration, second repeat): 94%; activity at 3 µM ([1]; Plasmodium berghei, 3 uM (compounds provided at 10 mM), average of 2 wells on a 1536 well plate, column 8, read-out: Pb-Luc (P. berghei liver stage), % of control, higher concentration, first repeat): 38%; activity at 3 µM ([1]; Plasmodium berghei, 3 uM (compounds provided at 10 mM), average of 2 wells on a 1536 well plate, column 9, read-out: Pb-Luc (P. berghei liver stage), % of control, higher concentration, second repeat): 81%; CC50 at 48 h ([2]; hepg2): 21.7 µM; viability at 48 h, 1 µM [3]: 104%; viability at 48 h, 3 µM [3]: 69%
O=C(N/N=C(/c1ccccc1)c1cccnc1)c1cccc(F)c1 [MLS001224623-01]	–	–	–	–	–	–	–	–	–	12.2	4.22	–	–	–	activity at 1 µM [1, 16]: 10%; activity at 1 µM [1, 17]: 9%; activity at 3 µM [1, 18]: 6.61%; activity at 3 µM [1, 19]: 8%; HepG2 1uM growth rep1 [5]: 68%; HepG2 1uM growth rep2 [5]: 59%; HepG2 3uM growth rep1 [5]: 30%; HepG2 3uM growth rep2 [5]: 34%
COc1ccc(C2C=C(c3ccc(Cl)cc3)Nc3nc(-c4ccc(Cl)cc4)nn32)cc1 (stereo not drawn) [NCGC00100531-01]	Inactive	88.1	81	70.8	5.3	3.16	51.4	–	–	–	0.237	96.07	80.71	–	CC50 at 48 h ([2]; hepg2): 15.3 µM; HepG2 viability signal, 1 uM, repeat 1 ([5]; nominal 1 uM (10 mM stock), […] for 15 mM, 1.2 uM for 12 mM, 2 uM for 20 mM stock, repeat 1): 97.18%
COc1ccc(CN[C@@H]2C=C[C@@H](c3c(C)nn(-c4ccc(OC)cc4)c3C)C2)cc1 [NCGC00401425-01]	–	79.1	135	59	56.4	76.7	51.8	–	–	39.6	4.85	96.20	99.98	–	viability at 48 h, 1 µM [3, 14]: 100%; viability at 48 h, 3 µM [3, 14]: 99.3%
CCOC(=O)c1cnc(-n2nc(C)cc2C)nc1NC1CCCC1 [MLS000333072-01]	Inactive	–	–	–	–	–	–	–	–	17.2	8.41	–	–	107	–
O=C1Nc2ccccc2C1=NN=C(S)N1CCOCC1 [MLS000778251-01]	Decrease	–	–	–	–	–	–	0.251	0.251	15.3	2.11	–	–	86.1	AC50 [1, 20]: 0.316 µM; Log AC50 (M) [1, 21]: -6.500 M
N=c1ccn(Cc2ccc(Cl)c(Cl)c2)cc1 [MLS000080112-01]	Decrease	–	–	–	–	–	–	1.41	1.41	30.6	6.68	–	–	99.6	AC50 [1, 20]: 1.58 µM; Log AC50 (M) [1, 21]: -5.800 M
O=C(Nc1ncccc1O)c1ccc(NS(=O)(=O)c2ccc3[nH]c(=O)[nH]c3c2)cc1 [MLS001138628-01]	–	–	–	–	–	–	–	–	–	21.7	0.422	–	–	–	activity at 1 µM [1, 16]: 61%; activity at 1 µM [1, 17]: 57%; activity at 3 µM [1, 18]: 21%; activity at 3 µM [1, 19]: 25%; HepG2 1uM growth rep1 [5]: 110%; HepG2 1uM growth rep2 [5]: 100%; HepG2 3uM growth rep1 [5]: 89%; HepG2 3uM growth rep2 [5]: 93%
